Assay results published in US7119064B2, “Use of colostrinin, constituent peptides thereof, and analogs thereof as modulators of intracellular signaling molecules” (Board of Regents, The University of Texas System, priority 1999, dated 2006).
Marks after values point to notes of the source that are not given here.

How the values were obtained:
Assay type in all cases: cell-based
[1] = system: GSH extrusion from PC12 cells; assay: Reduced GSH in extracellular fluid (GSH extrusion); settings: 4HNE, relative to CLN- or mock-treated cells
Method: To determine whether the loss of intracellular GSH was due to it's extrusion from the cells or oxidation, the level of reduced GSH in the extra-cellular fluid was evaluated.

[2] = system: intracellular GSH in PC12 cells; assay: Intracellular glutathione (GSH) level, o-phthalaldehyde fluorimetry
Method: Measurement of glutathione (GSH): In brief, PC12 cells were mock- or pre-treated with CLN or lactalbumin hydrolysate (LAH), both in 10 μg/ml concentration and then exposed to 4HNE (25 nM). PBS-washed (twice) cells were then extracted with 25% (w/v) metaphosphoric acid solution containing 5 mM EDTA. After ultracentrifugation (105,000 g for 30 min), 100 μl of 100 mM phosphate solution (pH 8.0) containing 5 mM EDTA and 10 μl of o-phthalaldehyde OPA(OPD; Molecular Probes, Inc.) was added to the supernatant, and the fluorescence intensity at 420 nm determined with excitation set at 350 nm (A. P. Senft et al., Anal Biochem., 280:80–86 (2000)).
To investigate whether the anti-oxidant effect of CLN was due to protection of intracellular GSH levels, PC12 cells were pre-treated (with CLN or LAH) and exposed to 4HNE, as described above, and changes in GSH levels were determined fluorimetrically. […] OPA (o-phthalaldehyde or phthalic dicarboxaldehyde) is highly fluorescent when it is conjugated to GSH (A.P. Senft et al., Anal Biochem., 280:80–86 (2000)).

PC12 cells = assay: 4HNE-induced apoptosis, annexin V-PE / 7-AAD flow cytometry
Method: FIG. 8. […] PC12 cells were treated with CLN (1 μg per ml) for 15 min and 4HNE (100 nM) was added. Twenty four hours later, cells were harvested and stained with annexin V-PE and 7-AAD. 1, solvent alone; 2, 100 nM 4HNE; 3, TROLOX (vitamin E) 4, col (internal control)+100 nM 4HNE; 5, CLN alone (1 μg per ml); 6, CLN (1 μg per ml)+100 nM 4HNE.
Apoptosis is a specific mode of cell death recognized by a characteristic pattern of morphological, biochemical, and molecular changes. Currently the hallmark of apoptosis in vitro is DNA fragmentation and changes in plasma membrane reorganization that allows for the surface expression of phosphatidyl-D-serine and result in increased membrane permeability. The protection of cells against 4HNE by CLN using increased permeability and cell membrane expression of phosphatidyl-D-serine was investigated.
Cells were simultaneously labeled with fluorochrome-conjugated annexin V-PE (detecting PS asymmetry in the plasma membrane, an early marker of apoptosis), 7-aminoactinomycin D (7-AAD) (detecting increased membrane permeability associated with both apoptosis and necrosis). A dual laser flow cytometer (either a Becton-Dickinson FACScan) was used for the simultaneous detection of the PE-conjugated annexin V (which is excited at […]), 7-AAD (excited at 488 nm and emitting at 670 nm). […]

[3] = system: 4HNE-protein adducts in PC12 cells; assay: 4HNE-protein adduct levels, Western blot analysis; settings: 4HNE 25, 12.5, 6.2 nM alone
Method: (§1) Western blot analysis: PC12 cells were plated at 7×10^6 cells/T75 flask. After exposure to 4HNE, colostrinin or their combination, cells were collected and lysed in 50 millimolar (mM) Tris, 5 mM EDTA, 150 mM NaCl, 0.5% NP-40, 10% glycerol and protease inhibitor cocktail (supplemented with 1 mM Na3VO4, 2 mM EDTA, 1 mM phenylmethylsulfonyl fluoride). Lysates were centrifuged at 14,000g for 10 minutes (min) (4° C.) and 40 μg of protein was fractionated on a 10% SDS-polyaciylamide gel and transferred to protein-optimized membranes (Amersham, Inc.). p53 was detected using specific antibody (DO1; Santa Cruz Biotechnology, Inc.) at a dilution of 1:300. Adducts were detected using an antibody to HNE-protein adducts (Phanningen, Inc.) at a dilution of 1:500. The anti-phospho-JNK antibody (New England Biolabs, Inc., Beverly, Mass.) was raised against a synthetic phosphopeptide (SFMMT*PY*VVTRYYR) corresponding to residues 179–193 of JNK. For visualization of primary antibody binding, all blots were incubated with horseradish peroxidase-conjugated secondary antibody (Amersham, Inc.) at a dilution of 1:2000, followed by chemiluminescence detection (Amersham, Inc.) and autoradiography.
To confirm the results generated by immunochemistry, Western blot analysis was used to investigate changes in 4HNE-protein adduct levels in cells treated with 4HNE alone or CLN plus 4HNE.

[4] = system: 4HNE-protein adducts in PC12 cells; assay: 4HNE-protein adduct formation, fluorescent microscopy (immunocytochemistry); settings: 4HNE 25 nM or H2O2 100 μM alone
From the text: Cell cultures: Pheochromocytoma (PC12) cells were provided by Dr. Regino Perez-Polo (University of Texas Medical Branch, Department of Human Biological Chemistry and Genetics) and maintained in EMEM supplemented with 10% fetal bovine serum, penicillin (100 IU/mI) and streptomycin (100 micrograms per milliliter (μg/ml)). Exponentially growing populations of PC12 cells were sub-cultured and used for all experiments.
Immunocytochemistry: PC12 cells grown on cover-slips were fixed overnight in PBS containing 2% paraformaldehyde at 4° C. Cells were permeabilized by 0.3% Triton X-100, washed in PBS then incubated with primary antibody in PBS containing 0.05% Tween 20 (PBS-T). After washing 3 times in PBS-T, FITC-labeled anti-rabbit IgG (Santa Cruz Biotechnology Inc.) was added. Cells were washed (5 times, for 10 min) with PBS-T and mounted on microscope slides in anti-fade solution (Dako, Inc.). Images of cellular immunofluorescence were acquired using a NIKON Eclipse TE300 scanning microscope.
Fluorescent microscopy and Western blot analysis was undertaken to investigate the extent of 4HNE protein-adduct formation in cultures of PC12 cells in the presence of CLN. Cells were pretreated with CLN or LAH in the presence or absence of 4HNE and then analyzed for the formation of 4HNE-protein adducts.

JNK = assay: 4HNE-induced JNK activation, Western blot with anti-phospho-(Thr-183/Tyr-185) JNK antibody; settings: PC12 cells
Method: as §1, with “For visualization of primary antibody binding, all blots were incubated with horseradish peroxidase-conjugated secondary antibody (Amersham, Inc.) at a dilution of 1:2000, followed by chemiluminescence detection (Amersham, Inc.) and autoradiography.” left out
The effect of CLN on 4HNE-induced activation of JNK in PC12 cells was investigated. The activation of JNK was monitored by Western blot analysis using a highly specific anti-phospho- (Thr-183/Tyr-185) JNK antibody (Materials and Methods).

p53 = assay: 4HNE-induced activation of p53, Western blot; settings: 4HNE-treated PC12 cells
Method: as §1
Whether CLN could modulate p53 levels after 4HNE exposure was also investigated.

SH-SY5Y cells [5] = assay: Protection against retinoic acid toxicity in SH-SY5Y cells, microscopic grading; settings: for DIFFERENTIATION: Retinoic Acid 20 μM (Day 1) alone
Method: (§2) Retinoic Acid was left on the plate for the duration of the experiment or until washed off. Colostrinin was added to the plate at the indicated doses. When added on Day 1, it was present during the entire experiment. When added on Day 5, it was incubated on the plate for 30 minutes at 37° C. and then removed. The wells were washed twice with PBS before adding β-Amyloid. Cultures were then observed under the microscope and graded.

SH-SY5Y cells [6] = assay: Anti-apoptotic activity against β-amyloid toxicity in SH-SY5Y cells, microscopic grading; settings: Beta-amyloid 10 μg/ml added on day 5
Method: as §2, with “To determine whether this was reproducible and to determine the potency of CLN to inhibit retinoic acid toxicity, two concentration of retinoic acid were used to treat cells on day one of the experiment, 20 μM and 40 μM. *Control wells were mock-treated for the duration of the experiment. Retinoic” for “Retinoic”

CCCCCC(O)/C=C/C=O (centres unmarked) [4HNE]
OPA-GSH-mediated fluorescence of extracellular fluid [1]: significant increase in OPA-GSH-mediated fluorescence | loss of GSH ([2]; 4HNE 25 nM): more than 50% | intracellular GSH levels, 4HNE alone ([2]; 4HNE alone for 30 min): significant reduction of intracellular GSH levels | toxic effects / induction of apoptosis (PC12 cells; 4HNE 25 nM, PC12 cells): did not show toxic effects or induce apoptosis | apoptosis, 4HNE alone (PC12 cells; 4HNE 100 nM): Induction of apoptosis | 4HNE-protein adduct levels (Western blot), 4HNE alone [3]: significant increase in levels of 4HNE-protein adducts | 4HNE-protein adduct fluorescence, inducer alone [4]: bright fluorescence | JNK phosphorylation, 4HNE alone (JNK; 4HNE 25 nM alone): potent inducer of JNK phosphorylation | p53 activation, 4HNE alone (p53): induced its activation

Nc1ncnc2c1nc(Sc1ccc(Cl)cc1)n2[C@@H]1O[C@@H]2COP(=O)(O)O[C@H]2[C@H]1O [8-(4-chlorophenylthio)-cAMP]
4HNE-induced JNK phosphorylation (JNK; pretreatment with inhibitor of JNK activation): prevented 4HNE-induced JNK phosphorylation

OO [H2O2]
4HNE-protein adduct fluorescence, inducer alone [4]: bright fluorescence

CC1=C(/C=C/C(C)=C/C=C/C(C)=C/C(=O)O)C(C)(C)CCC1 [Retinoic Acid]
DIFFERENTIATION (SH-SY5Y cells [5]; cells observed Day 2): ++++ (Day 2)^b (++++ Approximately 100% of the cells) | DIFFERENTIATION (SH-SY5Y cells [5]; cells observed Day 8): + (Day 8)^b (+ Approximately 25% of the cells) | onset of toxicity, retinoic acid alone (SH-SY5Y cells [5]; retinoic acid 20 μM): started showing signs of toxicity by day 6 | cell morphology, retinoic acid alone (FIG. 6F) (SH-SY5Y cells [5]; retinoic acid 20 μM added on day 1): Toxic (apoptotic) effect | toxicity, retinoic acid alone (SH-SY5Y cells [5]; retinoic acid 40 μM): the toxicity developed too rapidly

β-Amyloid
cell morphology, Beta-amyloid alone (FIG. 6B) (SH-SY5Y cells [6]): show its toxicity
